Measured values taken from article PMC10740270, “In-silico guided chemical exploration of KDM4A fragments hits” (Clinical Epigenetics, 2023).
“And” between values parts separate entries of the source, which are not always exact repeats. Equal entries are not always repeated.

Experiments:
KDM4A [1] = molecular target: T1, KDM4A (Homo sapiens, UniProt O75164); test: Enzymatic HTRF-based assay, inhibition of H3K9me3 peptide demethylation; assay type: biochemical; conditions: for IC50: HTRF, H3K9me3 peptide, 0.5 µM 2-OG, 400 nM KDM4A, ± standard error of fit; for inhibition at 50 µM: read-out: Inhibition at 50 μM
T1 construct: encoding human KDM4A residues 1–350 with a GST-6xHis tag at the N-terminal; GST-6xHis (followed by TEV cleavage site) (N, cleaved yes); made in house; host or cells: T7 Express E. coli
T1 sequence (O75164 1-350): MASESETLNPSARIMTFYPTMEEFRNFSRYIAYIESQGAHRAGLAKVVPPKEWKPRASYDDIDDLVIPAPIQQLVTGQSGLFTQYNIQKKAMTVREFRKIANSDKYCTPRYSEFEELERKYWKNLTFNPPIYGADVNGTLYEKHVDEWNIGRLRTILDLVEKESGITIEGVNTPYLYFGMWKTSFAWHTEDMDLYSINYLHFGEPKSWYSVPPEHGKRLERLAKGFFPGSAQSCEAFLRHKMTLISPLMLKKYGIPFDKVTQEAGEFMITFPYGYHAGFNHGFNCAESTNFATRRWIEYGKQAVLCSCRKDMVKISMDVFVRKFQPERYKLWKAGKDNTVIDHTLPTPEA
Procedure: The plasmid pGEX4T2-JMJD2A encoding human KDM4A residues 1–350 with a GST-6xHis tag at the N-terminal, followed by Tobacco Etch Virus (TEV) cleavage site, was used for protein expression. The plasmid was used to transform T7 Express E.coli competent cells. Cells were grown in LB media supplemented with ampicillin (100 µg/mL) at 37 °C until the OD600 reached a value around 0.4. Flasks were then cooled down and, after induction by 0.2 mM ITPG at OD600 = 0.8, bacteria were grown at 18 °C for 20 h. After centrifugation at 8000 g (20 min at 4 °C) the obtained pellets were suspended in lysis buffer (20 mM TRIS pH = 8, 0.3 M NaCl, 10 mM imidazole, 5% glycerol, 1 mM DTT, 10 µg/mL DNAse, 0.5 mg/mL lysozyme, 0.5 mM PMSF, 2 cOmplete™ EDTA-free Protease Inhibitor Cocktail, 5 mM MgCl2) and incubated at 25 °C for 1 h. Sonication (1 s ON and 1 s OFF) on ice for 7 min at 48% amplitude was performed. 0.1% Triton X-100 was added and the lysate was incubated on ice for 15 min in agitation. Soluble and insoluble phase were separated by centrifugation at 15,000 rpm, 4 °C for 30 min. Soluble phase was filtered using a 0.45 um syringe filter and directly loaded in 2 × 5 mL His-trap FF Crude column (GE Healthcare) previously equilibrated with loading buffer (20 mM TRIS, pH = 8, 0.3 M NaCl, 1 mM DTT, 10 mM imidazole, 5% glycerol). A linear gradient elution by 500 mM imidazole was done to elute bound KDM4A. In order to remove the GST-6xHis tag and imidazole excess, the eluted KDM4A was incubated with His-tagged TEV-protease (molar ratio 20:1) and dialyzed against 20 mM TRIS, pH = pH 7.5, 0.3 M NaCl, 1 mM DTT overnight at 4 °C. Tag free KDM4A was recovered reloading the dialyzed sample onto a His-trap column and collecting the flow-through. Size exclusion chromatography was used as final polishing step using a Superdex 200 grade 16/600 pg column (GE Healthcare) pre-equilibrated with 10 mM Hepes, pH = 7.5, 150 mM NaCl, 5% glycerol, 0.5 mM TCEP. Fractions containing KDM4A were pooled and concentrated to 50–100 µM, flash frozen in liquid nitrogen, and stored at − 80 °C. Protein concentration was measured by using the predicted molar extinction coefficient (ε280 = 73,800 M^−1 cm^−1), and the purity verified by SDS-PAGE resulted > 95%.
Enzymatic HTRF-based assay was run in two steps: enzymatic reaction and detection. Optimal conditions for both steps were determined by considering: plate format, time and temperature of incubation, substrate and DMSO concentrations.
Dimethyl sulfoxide (DMSO, Sigma-Aldrich D58791) final concentration was 1%. The reaction mixture was incubated for 2 h at 20 °C in ½ area 96 well plates (ref. 6002290 m, Perkin Elmer).
For the detection step, 40 μl of HTRF reagents, H3K9 me2-Eu(K) Ab (Cisbio Bioassays, 61KB2KAE) and Streptavidin XL-665 (Cisbio Bioassays, 610SAXLA), prepared in detection buffer following manufacturer’s instruction (Cisbio Assays, 62SDBRDD), were added to each well and incubated o/n at 20 °C. Fluorescence was measured with a TECAN Spark reader (Männedorf, Switzerland), by setting excitation wavelength at 320 nm and emission wavelength at 620 and 665 nm.
Automation was performed using Bravo (Agilent) liquid handling system. Validation of the assay was performed following NIH guidelines. 2,4-pyridinedicarboxylic acid monohydrate (2,4-PDCA, Sigma Aldrich P63395) was used as positive control at Imax 10 µM, and Z’ was determined on 9 independent experiments always giving a value > 0.5. The following reference compounds were used as internal controls in the screening plates: 2,4-Pyridinedicarboxylic Acid, 8-hydroxyquinoline-5-carboxylic acid, pyrido[3,4-d]pyrimidin-4(3H)-one, 3-(ethylsulfonyl)-N-(4-(pyridin-2-yl)thiazol-2-yl)benzamide, 3-(ethylsulfonyl)-N-(4-(pyridin-2-yl)thiazol-2-yl)benzamide, 3-(methylsulfonyl)-N-(4-(pyridin-2-yl)thiazol-2-yl)benzamide.

KDM4A [2] = molecular target: T1, KDM4A; test: Bio-layer interferometry (BLI) binding to biotinylated KDM4A; conditions: for Kd: BLI, 1:1 Langmuir global fit, 25 °C, 5% DMSO; for LE: ligand efficiency score; for LE / LLE: method of ref 58; for LLE: lipophilic ligand efficiency score
From the text: (§1) Bio-layer interferometry (BLI) was then used to determine the equilibrium dissociation constant (KD) for the binding event. QC6352 inhibitor [52] and N-[(2-Chloro-6-fluorophenyl)methyl]-2-(2,5-dioxo-4-phenyl-4-propylimidazolidin-1-yl)-N-methylacetamide were used as positive and negative control, respectively. […] Binding was also confirmed by Saturation-Transfer Difference (STD) NMR experiments (Additional file 1: Fig. S5).
Bio-layer Interferometry experiments Bio-layer Interferometry was employed to determine the equilibrium dissociation constant (KD) for compounds binding to KDM4A, using a BLI Octet RED96e instrument (Fortebio–Sartorius). Biotinylated KDM4A samples (20 μg/ml) in 10 mM Hepes, pH = 7.5, 150 mM NaCl, 0.5 mM TCEP, 5% glycerol, and 5% DMSO, were loaded onto super streptavidin (SSA) coated biosensors for at least 500 s to saturate the sensors, and then quenched with 10 µg/ml of biocytin for 60 s. Loaded SSA biosensors were then equilibrated in buffer for at least 600 s prior to baseline collection. Association was followed for at least 120 s or until plateau was reached, in a concentration range of 15.6–500 nM for the positive control, and of 3–200 µM for the negative control, and compound 1 and its analogues. Dissociation was followed for at least 300 s. All steps were performed at 25 °C with an agitation speed of 1000 rpm. QC6352 inhibitor [52] and N-[(2-chloro-6-fluorophenyl)methyl]-2-(2,5-dioxo-4-phenyl-4-propylimidazolidin-1-yl)-N-methylacetamide were used as positive and negative control, respectively. Two or three independent experiments were performed for each tested compound.
KD values were estimated by globally fitting the BLI response intensity (nm) as a function of compound concentration (μM) with the Octet Data Analysis Software, using a 1:1 Langmuir binding model.
Biotinylated KDM4A was obtained as follows. 17 nmol of purified recombinant KDM4A was mixed with 17 nmol of NHS-PEG4-Biotin (ThermoFisher Scientific 21,330) in 10 mM Hepes, pH = 7.5, 150 mM NaCl, 0.5 mM TCEP, 5% Glycerol. The solution was incubated at 4 °C for 2 h. Excess biotin was removed by 2 ml Zeba™ Spin Desalting Columns (7 K MWCO).

KDM4A [3] = molecular target: T1, KDM4A; test: STD-NMR binding experiment; conditions: 1:50 receptor-to-ligand ratio, 7.5 µM KDM4A
Procedure: as §1
STD-NMR experiments STD-NMR spectra were recorded at 800 MHz on Bruker spectrometer and 298 K in 20 mM NaPh, pH = 7.5, 150 mM NaCl, 0.5 mM TCEP, 8% D2O, using 7.5 µM of KDM4A and 20- or 50-fold excess of each compound. A series of Gaussian-shaped pulses of 0.025 s each was employed with a total saturation time for the protein envelope of 2 s. Off-resonance frequency of d = − 40 ppm and on-resonance frequency of d = 0.07 ppm (protein aliphatic signals region) were applied. Spectra were processed and analyzed using Bruker TopSpin software.
Suppl. Fig. S5: STD-NMR analysis of compound 1. […] (i) The 1D NMR reference spectrum of compound 1. (ii) The STD-NMR spectrum of compound 1 in the presence of KDM4A. The NMR spectrum was recorded at 1:50 receptor-to-ligand ratio.

[4] = substrate: O=C(O)CCC(=O)C(=O)O; test: purified protein, by the assay type; conditions: other: 2-OG titrated 50 µM to 0.01 µM, Michaelis-Menten plot

## CNC(=O)c1cc(C(=O)O)ccn1 [Compound 1, 2-(methylcarbamoyl)isonicotinic acid]
KDM4A [1]
  IC50: 7.09 µM and 7.1 µM
KDM4A [2]
  Kd: 15 ± 0.16 µM
  LE: 0.51
  LLE: 4.59
KDM4A [3]
  Binding to KDM4A by STD-NMR: detected compound 1 binding to KDM4A

## COC(=O)c1ccnc(C(=O)NCc2ccccc2)c1 [Compound 5a, Methyl 2-(benzylcarbamoyl)isonicotinate]
KDM4A [1]
  inhibition at 50 µM: < 50%

## COC(=O)c1ccnc(C(=O)NCc2nc3ccccc3n2C)c1 [Compound 5d, Methyl 2-(((1-methyl-1H-benzo[d]imidazole-2-yl)methyl)carbamoyl)isonicotinate]
KDM4A [1]
  inhibition at 50 µM: < 50%
KDM4A [2]
  Kd: 55 ± 2 µM
  LE: 0.24
  LLE: 1.88

## O=C(O)c1ccnc(C(=O)NCc2ccccc2)c1 [Compound 6a, 2-(benzylcarbamoyl)isonicotinic acid]
KDM4A [1]
  inhibition at 50 µM: < 50%
KDM4A [2]
  Kd: 45 ± 1 µM
  LE: 0.33
  LLE: 2.49

## O=C(O)c1ccnc(C(=O)NCc2cnco2)c1 [Compound 6b, 2-((Oxazol-5-ylmethyl)carbamoyl)isonicotinic acid]
KDM4A [1]
  IC50: 25.1 µM and 25 µM
  inhibition at 50 µM: > 90%
KDM4A [2]
  Kd: 9.5 ± 0.08 µM
  LE: 0.39
  LLE: 4.50

## CCCNC(=O)c1cc(C(=O)O)ccn1 [Compound 6c, 2-(Propylcarbamoyl)isonicotinic acid]
KDM4A [1]
  IC50: 41.6 µM
  inhibition at 50 µM: > 90%
KDM4A [2]
  Kd: 10.7 ± 0.2 µM
  LE: 0.48
  LLE: 4.18

B1: KDM4A (Homo sapiens) (protein)
chain: MASESETLNPSARIMTFYPTMEEFRNFSRYIAYIESQGAHRAGLAKVVPPKEWKPRASYDDIDDLVIPAPIQQLVTGQSGLFTQYNIQKKAMTVREFRKIANSDKYCTPRYSEFEELERKYWKNLTFNPPIYGADVNGTLYEKHVDEWNIGRLRTILDLVEKESGITIEGVNTPYLYFGMWKTSFAWHTEDMDLYSINYLHFGEPKSWYSVPPEHGKRLERLAKGFFPGSAQSCEAFLRHKMTLISPLMLKKYGIPFDKVTQEAGEFMITFPYGYHAGFNHGFNCAESTNFATRRWIEYGKQAVLCSCRKDMVKISMDVFVRKFQPERYKLWKAGKDNTVIDHTLPTPEA
[4]
  Km: 0.73 ± 0.16 µM
